US10227347B2, “Purinyl-N-hydroxyl pyrimidine formamide derivative, preparation methods and uses thereof” (Guizhou Bailing Group Pharmaceutical CO., LTD., priority 2015, dated 2019)
Where two headings read alike, the source gives them in different places.

Columns and labels:
HDAC2 = biological target: T1, HDAC2 (Homo sapiens, UniProt Q92769); test: HDAC2 enzyme inhibition (Lys-Ac-AMC); type: biochemical; details: Table 4, graded
T1 construct: purchased BPS Bioscience 50002
Protocol: (§1) Determining the inhibition capability of HDAC through the substrate method of fluorophore coupled acetylized peptide fragment (Lys-Ac-AMC). HDAC2-11 proteins of subtypes are purchased from BPS Bioscience Company with the Art. […] The reaction buffer system is a modified Tris buffer (pH7.0). The small molecule compounds are prepared and dissolved with 100% DMSO. […] Adding the compound into the reaction wells of the 384 well plate at the designed concentration, then adding 15 μL HDAC enzyme solution into the reaction wells (adding 15 μL blank buffer into the control well 0) for incubation under ambient temperature for 15 min; then adding 10 μL substrate solution to start reaction.
(§2) Analyzing the result data with the software GraphPad Prism and calculating the value of IC50 as per the formula: Y=background data+(top data−background data)/(1+10^((Log IC50−X)*rate of curve)). Where, Y refers to the inhibition ratio (%) and X refers to the compound concentration.

HDAC5 = biological target: T2, HDAC5 (Homo sapiens, UniProt Q9UQL6); test: HDAC5 enzyme inhibition (Lys-Ac-AMC); type: biochemical; details: Table 4, graded
T2 construct: purchased BPS Bioscience 50005
T2 sequence (Q9UQL6 656-1122 limits assumed): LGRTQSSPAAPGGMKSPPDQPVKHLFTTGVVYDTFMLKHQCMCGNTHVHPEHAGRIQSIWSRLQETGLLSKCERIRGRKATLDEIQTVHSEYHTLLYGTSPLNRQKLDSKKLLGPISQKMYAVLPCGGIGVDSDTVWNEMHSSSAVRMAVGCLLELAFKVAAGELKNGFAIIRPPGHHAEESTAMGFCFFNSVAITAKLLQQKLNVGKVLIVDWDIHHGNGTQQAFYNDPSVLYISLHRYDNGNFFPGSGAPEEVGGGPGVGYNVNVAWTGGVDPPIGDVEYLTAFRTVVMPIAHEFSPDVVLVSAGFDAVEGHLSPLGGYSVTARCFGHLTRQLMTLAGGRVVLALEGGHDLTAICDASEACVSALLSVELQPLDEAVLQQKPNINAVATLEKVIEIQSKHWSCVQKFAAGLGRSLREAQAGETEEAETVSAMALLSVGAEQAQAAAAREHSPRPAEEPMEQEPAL
Protocol: as §1, §2

HDAC8 = biological target: T3, HDAC8 (Homo sapiens, UniProt Q9BY41); test: HDAC8 enzyme inhibition (Lys-Ac-AMC); type: biochemical; details: Table 4, graded
T3 construct: purchased BPS Bioscience 50008
T3 sequence (Q9BY41 1-377): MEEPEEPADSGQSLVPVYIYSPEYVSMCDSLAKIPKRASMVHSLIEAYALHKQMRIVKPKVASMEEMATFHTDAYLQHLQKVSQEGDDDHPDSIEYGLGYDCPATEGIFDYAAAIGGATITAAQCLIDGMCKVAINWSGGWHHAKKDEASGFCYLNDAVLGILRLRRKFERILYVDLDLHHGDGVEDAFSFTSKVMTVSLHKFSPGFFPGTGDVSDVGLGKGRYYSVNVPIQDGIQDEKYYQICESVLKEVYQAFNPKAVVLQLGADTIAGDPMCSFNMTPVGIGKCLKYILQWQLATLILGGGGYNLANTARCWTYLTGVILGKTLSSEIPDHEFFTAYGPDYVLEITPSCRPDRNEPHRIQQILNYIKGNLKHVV
Protocol: as §1, §2

HDAC1 = biological target: T4, HDAC1 (Homo sapiens, UniProt Q13547); test: In vitro HDAC1 enzymatic activity inhibition (Lys-Ac-AMC substrate); type: biochemical
T4 construct: purchased BPS Bioscience
T4 sequence (Q13547 whole entry, species assumed): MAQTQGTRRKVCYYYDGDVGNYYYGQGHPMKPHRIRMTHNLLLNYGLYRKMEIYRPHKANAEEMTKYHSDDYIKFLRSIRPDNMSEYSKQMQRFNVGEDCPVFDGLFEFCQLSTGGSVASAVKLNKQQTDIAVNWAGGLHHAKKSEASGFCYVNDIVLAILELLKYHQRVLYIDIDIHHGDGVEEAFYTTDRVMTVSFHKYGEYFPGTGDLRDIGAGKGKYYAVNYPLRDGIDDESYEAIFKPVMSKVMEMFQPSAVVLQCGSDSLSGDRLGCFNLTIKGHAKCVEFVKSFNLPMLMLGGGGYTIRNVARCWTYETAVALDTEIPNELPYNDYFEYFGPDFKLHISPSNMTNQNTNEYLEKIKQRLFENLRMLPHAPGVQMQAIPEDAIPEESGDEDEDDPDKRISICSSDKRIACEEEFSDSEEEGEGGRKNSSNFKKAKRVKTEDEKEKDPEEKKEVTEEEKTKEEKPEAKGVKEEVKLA
Method in brief: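 Fluorogenic Lys-Ac-AMC deacetylation with trypsin development in modified Tris buffer pH 7.0; compound preincubated with enzyme 15 min at ambient temperature before substrate addition. Final HDAC1 6 nM, trypsin 0.05 μM, Ac-peptide 8 μM. IC50 from four-parameter fit of % inhibition versus concentration.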

PI3Kδ = biological target: T5, PI3Kδ (Homo sapiens, UniProt O00329); test: PI3Kδ activity inhibition (Kinase-Glo); type: biochemical
T5 construct: purchased Millipore 14-604-K
T5 sequence (O00329 whole entry): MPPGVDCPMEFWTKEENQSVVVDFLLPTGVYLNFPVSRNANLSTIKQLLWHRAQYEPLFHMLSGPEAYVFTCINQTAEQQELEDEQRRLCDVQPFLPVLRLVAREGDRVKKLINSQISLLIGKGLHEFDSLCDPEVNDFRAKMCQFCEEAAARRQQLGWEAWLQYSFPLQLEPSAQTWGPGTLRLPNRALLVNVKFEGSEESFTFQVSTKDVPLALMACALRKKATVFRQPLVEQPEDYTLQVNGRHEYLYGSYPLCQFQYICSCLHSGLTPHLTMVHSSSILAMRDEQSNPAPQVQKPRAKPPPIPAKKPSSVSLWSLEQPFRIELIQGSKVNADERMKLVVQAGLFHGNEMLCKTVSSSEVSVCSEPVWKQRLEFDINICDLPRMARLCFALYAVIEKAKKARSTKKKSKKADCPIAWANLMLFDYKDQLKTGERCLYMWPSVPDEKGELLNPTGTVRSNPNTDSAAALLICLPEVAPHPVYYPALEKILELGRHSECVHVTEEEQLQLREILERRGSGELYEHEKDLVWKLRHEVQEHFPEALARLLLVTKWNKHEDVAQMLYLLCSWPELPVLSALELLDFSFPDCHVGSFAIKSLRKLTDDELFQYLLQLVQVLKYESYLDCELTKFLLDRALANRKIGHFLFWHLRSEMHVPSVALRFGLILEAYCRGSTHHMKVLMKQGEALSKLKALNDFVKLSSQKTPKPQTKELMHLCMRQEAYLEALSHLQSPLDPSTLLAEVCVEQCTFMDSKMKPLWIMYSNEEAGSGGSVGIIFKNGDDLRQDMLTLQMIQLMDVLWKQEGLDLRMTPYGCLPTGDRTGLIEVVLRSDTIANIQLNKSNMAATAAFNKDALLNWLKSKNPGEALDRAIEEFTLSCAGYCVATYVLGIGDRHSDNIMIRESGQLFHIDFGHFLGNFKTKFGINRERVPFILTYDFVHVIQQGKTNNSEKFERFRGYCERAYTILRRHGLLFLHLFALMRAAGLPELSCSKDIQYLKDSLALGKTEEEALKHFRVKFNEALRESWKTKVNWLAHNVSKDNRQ
T5 sequence (P27986 whole entry partner): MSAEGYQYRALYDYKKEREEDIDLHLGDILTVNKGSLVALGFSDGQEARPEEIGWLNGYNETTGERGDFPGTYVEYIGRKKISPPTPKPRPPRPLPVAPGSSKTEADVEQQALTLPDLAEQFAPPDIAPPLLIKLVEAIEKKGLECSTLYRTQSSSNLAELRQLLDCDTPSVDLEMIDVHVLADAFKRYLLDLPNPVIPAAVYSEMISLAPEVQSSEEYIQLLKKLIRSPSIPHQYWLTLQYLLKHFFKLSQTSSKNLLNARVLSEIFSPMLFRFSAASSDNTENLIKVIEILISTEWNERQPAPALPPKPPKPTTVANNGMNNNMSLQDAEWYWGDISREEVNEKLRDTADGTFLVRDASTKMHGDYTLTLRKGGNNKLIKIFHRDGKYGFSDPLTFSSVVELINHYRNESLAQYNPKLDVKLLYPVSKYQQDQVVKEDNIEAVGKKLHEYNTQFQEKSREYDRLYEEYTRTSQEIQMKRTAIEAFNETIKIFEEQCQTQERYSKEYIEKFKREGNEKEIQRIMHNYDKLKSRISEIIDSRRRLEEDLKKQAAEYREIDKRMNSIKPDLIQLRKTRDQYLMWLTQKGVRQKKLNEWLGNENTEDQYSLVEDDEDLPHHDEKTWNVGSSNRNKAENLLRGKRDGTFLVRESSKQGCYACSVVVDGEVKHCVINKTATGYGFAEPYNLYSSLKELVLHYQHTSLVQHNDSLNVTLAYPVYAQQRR
Protocol: Detecting the inhibition capability of the compound to PI3Kα and PI3Kδ activities with Kinase-Glo (purchased from Promege Company; Catalog No.: V3771). […] The reaction system also comprises substrates as PIP2 (4, 5-diphosphoinositide, purchased from Life Technologies Company) and ATP (triphosadenine, purchased from Sigma Company). The reaction buffer system comprises 50 mM HEPES (4-hydroxyethylpiperazine ethane sulfonic acid), 3 mM MgCl2, 1 mM EGTA (ethylene glycol bis(2-amino ethylether)quadrol), 100 mM NaCl, 0.03% CHAPS (3-[3-(cholamidopropyl)dimethylamino]-1-propanesulfonic acid), 2 mM DTT (dithiothreitol). The pH value of the reaction buffer is 7.5. […] Mixing the system evenly for incubation under ambient temperature (for 1 h in PI3Kα test and for 2 h in PI3Kδ test). After incubation, adding 10 μL Kinase-Glo which has been preheated to ambient temperature into each reaction well to terminate the reaction; shaking it in dark place for 15 min after it is mixed evenly, then measuring the fluorescence intensity with a microplate reader and analyzing the result data with the software GraphPad Prism.
Calculating the value of IC50 as per the formula: Y=background data+(top data−background data)/(1+10^((Log IC50−X)*rate of curve))
Where, Y refers to the inhibition ratio (%) and X refers to the compound concentration.

HDAC10 = biological target: T6, HDAC10 (Homo sapiens, UniProt Q969S8); test: HDAC10 enzyme inhibition (Lys-Ac-AMC); type: biochemical; details: Table 4, graded
T6 construct: purchased BPS Bioscience 50060
T6 sequence (Q969S8 1-669): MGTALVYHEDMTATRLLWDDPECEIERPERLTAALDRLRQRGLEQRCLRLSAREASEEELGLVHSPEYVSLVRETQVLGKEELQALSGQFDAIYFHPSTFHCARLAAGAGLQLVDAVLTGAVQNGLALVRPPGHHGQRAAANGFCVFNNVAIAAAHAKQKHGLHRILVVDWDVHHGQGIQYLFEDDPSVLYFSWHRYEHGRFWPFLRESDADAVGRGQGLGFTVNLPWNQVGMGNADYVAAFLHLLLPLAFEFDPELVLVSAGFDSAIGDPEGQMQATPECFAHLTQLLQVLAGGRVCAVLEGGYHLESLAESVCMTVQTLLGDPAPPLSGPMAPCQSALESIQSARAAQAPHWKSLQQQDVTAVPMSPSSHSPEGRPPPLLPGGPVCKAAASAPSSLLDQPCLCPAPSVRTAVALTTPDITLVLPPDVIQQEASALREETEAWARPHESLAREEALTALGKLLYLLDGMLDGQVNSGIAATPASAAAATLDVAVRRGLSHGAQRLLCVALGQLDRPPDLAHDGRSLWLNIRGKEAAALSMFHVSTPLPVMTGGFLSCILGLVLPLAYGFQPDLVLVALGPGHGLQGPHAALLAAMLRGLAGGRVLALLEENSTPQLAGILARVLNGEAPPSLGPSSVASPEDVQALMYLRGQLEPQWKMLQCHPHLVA
Protocol: as §1, §2

[1] = test system: U266 cells (multiple myeloma); test: Proliferation inhibition, U266 (cck-8); type: cell-based; details: Homo sapiens, U-266; 96 h incubation
From the text: Calculating the value of IC50 as per the formula: Y=background data+(top data−background data)/(1+10^((Log IC50−X)*rate of curve)). Where, Y refers to the inhibition ratio (%) and X refers to the compound concentration.

[2] = Table 1, graded, read-out: HDAC1 IC50
[3] = Table 4, graded, read-out: HDAC1 IC50
[4] = read-out: inhibition value IC50 to the activity of HDAC1

T1 sequence (Q92769 whole entry, species assumed): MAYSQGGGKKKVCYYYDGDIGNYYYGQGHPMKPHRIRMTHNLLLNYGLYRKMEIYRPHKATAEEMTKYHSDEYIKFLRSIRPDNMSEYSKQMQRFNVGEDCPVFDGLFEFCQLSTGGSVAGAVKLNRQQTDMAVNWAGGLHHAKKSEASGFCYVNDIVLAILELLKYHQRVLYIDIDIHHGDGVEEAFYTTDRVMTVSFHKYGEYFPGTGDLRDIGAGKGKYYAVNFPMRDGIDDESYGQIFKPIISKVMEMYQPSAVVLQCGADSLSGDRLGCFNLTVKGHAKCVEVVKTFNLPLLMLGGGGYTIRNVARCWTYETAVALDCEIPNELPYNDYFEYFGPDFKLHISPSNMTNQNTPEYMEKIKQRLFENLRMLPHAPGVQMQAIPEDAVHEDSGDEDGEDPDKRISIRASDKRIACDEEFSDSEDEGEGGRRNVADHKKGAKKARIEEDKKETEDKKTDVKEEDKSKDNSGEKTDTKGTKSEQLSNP

| SMILES | IC50 (HDAC2) | IC50 (HDAC5) | IC50 (HDAC8) | IC50 (HDAC1; [2]) | IC50 (HDAC1; [3]) | IC50 (PI3Kδ; Table 1, graded) | IC50 (PI3Kδ; Table 4, graded) | IC50 (HDAC10) | IC50 [1] | IC50 (HDAC1; [4]) |
| --- | --- | --- | --- | --- | --- | --- | --- | --- | --- | --- |
| COc1ccc(-c2nc(N3CCOCC3)c3nc(CN(C)c4ncc(C(=O)NO)cn4)n(C)c3n2)cn1 [CLJ-1, 2-(((2-(6-methoxypyridine-3-yl)-9-methyl-6-morpholine-9H-purine-8-yl))methyl(methyl)amino)-N-hydroxyl pyrimidine-5-formamide] | 1 to 100 nM | 1000 to 10000 nM | 100 to 1000 nM | < 100 nM | 1 to 100 nM | 100 to 1000 nM | 100 to 1000 nM | 1 to 100 nM | 0.1 to 1 nM | – |
| CN(Cc1nc2c(N3CCOCC3)nc(-c3cnc(N)nc3)nc2n1C)c1ncc(C(=O)NO)cn1 [CLJ-11, 2-(((2-(2-aminopyrimidine-5-yl)-9-methyl-6-morpholine-9H-purine-8-yl))methyl(methyl)amino)-N-hydroxyl pyrimidine-5-formamide] | 1 to 100 nM | 100 to 1000 nM | 1 to 100 nM | < 100 nM | 1 to 100 nM | 100 to 1000 nM | 1 to 100 nM | 1 to 100 nM | 10 to 100 nM | – |
| COc1ccc(-c2nc(N3CCOCC3)c3nc(CN(C)c4ncc(C(=O)NO)cn4)n(C)c3n2)cc1 [CLJ-29, 2-(((2-(4-methoxyphenyl)-9-methyl-6-morpholine-9H-purine-8-yl))methyl(methyl)amino)-N-hydroxyl pyrimidine-5-formamide] | 1 to 100 nM | 1000 to 10000 nM | 1 to 100 nM | < 1 nM | < 1 nM | – | > 10000 nM | 1 to 100 nM | 0.1 to 1 nM | < 1 nM |
| CN(Cc1nc2c(N3CCOCC3)nc(-c3ccc(N)cc3)nc2n1C)c1ncc(C(=O)NO)cn1 [CLJ-44] | 1 to 100 nM | 100 to 1000 nM | 1 to 100 nM | < 1 nM | < 1 nM | – | > 10000 nM | 1 to 100 nM | 1 to 10 nM | < 1 nM |
| Cc1[nH]c2ccccc2c1CCNCc1ccc(/C=C/C(=O)NO)cc1 [LBH589, panobinostat, reference compound] | – | – | – | – | – | – | > 10000 nM | – | 1 to 10 nM | – |
